Source: ChEMBL document CHEMBL1208753, “Peptide deformylase inhibitors with retro-amide scaffold: synthesis and structure-activity relationships” (Bioorg Med Chem Lett, 2010)
pIC50: −log10 of the molar value. In brackets after ≈: the same amount, converted by molar mass.

Columns and labels:
Streptococcus pneumoniae = assay: Antimicrobial activity against Streptococcus pneumoniae ATCC 6305 after 48 hrs; assay type: functional; details: ATCC 6305, 48 h
Peptide deformylase = biological target: T1, Peptide deformylase (Pseudomonas aeruginosa (strain ATCC 15692 / PAO1 / 1C / PRS 101 / LMG12228), UniProt Q9I7A8); assay: Inhibition of Pseudomonas aeruginosa Peptide deformylase by fluorescence analysis
T1 sequence (Q9I7A8 whole entry): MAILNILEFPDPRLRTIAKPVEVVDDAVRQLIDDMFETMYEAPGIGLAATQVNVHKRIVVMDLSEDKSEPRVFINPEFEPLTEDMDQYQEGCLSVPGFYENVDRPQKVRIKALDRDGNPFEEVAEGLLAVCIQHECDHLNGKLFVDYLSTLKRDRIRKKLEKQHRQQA

Moraxella catarrhalis = assay: Antimicrobial activity against Moraxella catarrhalis ATCC 43617 after 48 hrs; assay type: functional; details: ATCC 43617, 48 h
Haemophilus influenzae = assay: Antimicrobial activity against Haemophilus influenzae ATCC 51907 after 24 hrs; assay type: functional; details: ATCC 51907, 24 h

SMILES	MIC (Streptococcus pneumoniae) [µg/mL]	pIC50 (Peptide deformylase)	MIC (Moraxella catarrhalis) [µg/mL]	MIC (Haemophilus influenzae) [µg/mL]
COc1ccccc1NC(=O)N[C@H](C(=O)N(CC(=O)NO)CC1CC1)C(C)(C)C	12.5 (≈ 30.8 µM)	7.82	1.6 (≈ 3.94 µM)	6.3 (≈ 15.5 µM)
COc1ccccc1NC(=O)N[C@H](C(=O)N(CC(=O)NO)CC1CCC1)C(C)(C)C	0.4 (≈ 0.951 µM)	7.89	0.1 (≈ 0.238 µM)	0.4 (≈ 0.951 µM)
COc1ccccc1NC(=O)N[C@H](C(=O)N(CC(=O)NO)CC1CCCC1)C(C)C	0.8 (≈ 1.9 µM)	7.89	0.1 (≈ 0.238 µM)	0.8 (≈ 1.9 µM)
COc1ccccc1NC(=O)N[C@@H](C)C(=O)N(CC(=O)NO)CC1CCCC1	6.3 (≈ 16.1 µM)	7.38	12.5 (≈ 31.9 µM)	12.5 (≈ 31.9 µM)
COc1ccccc1NC(=O)N[C@@H](Cc1ccccc1)C(=O)N(CC(=O)NO)CC1CCCC1	25 (≈ 53.4 µM)	7.21	12.5 (≈ 26.7 µM)	25 (≈ 53.4 µM)
CC[C@@H](C)[C@H](NC(=O)Nc1ccccc1OC)C(=O)N(CC(=O)NO)CC1CCCC1	3.2 (≈ 7.36 µM)	7.49	0.2 (≈ 0.46 µM)	1.6 (≈ 3.68 µM)
COc1ccccc1NC(=O)N[C@@H](CC(C)C)C(=O)N(CC(=O)NO)CC1CCCC1	3.2 (≈ 7.36 µM)	7.44	0.8 (≈ 1.84 µM)	3.2 (≈ 7.36 µM)
COc1ccccc1NC(=O)N1CCC[C@H]1C(=O)N(CC(=O)NO)CC1CCCC1	200 (≈ 478 µM)	6.94	50 (≈ 119 µM)	200 (≈ 478 µM)
CC(C)C(=O)N[C@H](C(=O)N(CC(=O)NO)CC1CCCC1)C(C)(C)C	100 (≈ 281 µM)	7.28	0.8 (≈ 2.25 µM)	50 (≈ 141 µM)
CC(C)(C)[C@H](NC(=O)c1ccccc1)C(=O)N(CC(=O)NO)CC1CCCC1	12.5 (≈ 32.1 µM)	7.39	0.1 (≈ 0.257 µM)	3.2 (≈ 8.22 µM)
CC(C)(C)[C@H](NC(=O)c1cccs1)C(=O)N(CC(=O)NO)CC1CCCC1	12.5 (≈ 31.6 µM)	7.72	0.2 (≈ 0.506 µM)	1.6 (≈ 4.05 µM)
COc1ccccc1C(=O)N[C@H](C(=O)N(CC(=O)NO)CC1CCCC1)C(C)(C)C	50 (≈ 119 µM)	7.96	0.1 (≈ 0.238 µM)	0.4 (≈ 0.953 µM)
CC(C)(C)[C@H](NC(=O)Nc1ccccc1)C(=O)N(CC(=O)NO)CC1CCCC1	3.2 (≈ 7.91 µM)	7.77	0.1 (≈ 0.247 µM)	0.4 (≈ 0.989 µM)
CC(C)(C)[C@H](NC(=O)N1CCCCC1)C(=O)N(CC(=O)NO)CC1CCCC1	12.5 (≈ 31.5 µM)	7.33	0.8 (≈ 2.02 µM)	12.5 (≈ 31.5 µM)
CN(C(=O)N[C@H](C(=O)N(CC(=O)NO)CC1CCCC1)C(C)(C)C)c1ccccc1	50 (≈ 119 µM)	7.30	0.4 (≈ 0.956 µM)	25 (≈ 59.7 µM)
CC(C)(C)[C@H](NC(=O)N1CCOCC1)C(=O)N(CC(=O)NO)CC1CCCC1	25 (≈ 62.7 µM)	7.55	0.2 (≈ 0.502 µM)	12.5 (≈ 31.4 µM)
CC(C)(C)[C@H](NC(=O)NC1CCCCC1)C(=O)N(CC(=O)NO)CC1CCCC1	6.3 (≈ 15.3 µM)	7.26	0.1 (≈ 0.244 µM)	6.3 (≈ 15.3 µM)
COCCNC(=O)N[C@H](C(=O)N(CC(=O)NO)CC1CCCC1)C(C)(C)C	6.3 (≈ 16.3 µM)	7.38	0.1 (≈ 0.259 µM)	6.3 (≈ 16.3 µM)
CC(C)(C)[C@H](NC(=O)Nc1ccccn1)C(=O)N(CC(=O)NO)CC1CCCC1	12.5 (≈ 30.8 µM)	7.27	0.1 (≈ 0.247 µM)	0.8 (≈ 1.97 µM)
CC(C)(C)[C@H](NC(=O)Nc1ccncc1)C(=O)N(CC(=O)NO)CC1CCCC1	25 (≈ 61.7 µM)	7.19	0.2 (≈ 0.493 µM)	6.3 (≈ 15.5 µM)
CC(C)(C)[C@H](NC(=O)Nc1cccnc1)C(=O)N(CC(=O)NO)CC1CCCC1	6.3 (≈ 15.5 µM)	7.31	0.1 (≈ 0.247 µM)	3.2 (≈ 7.89 µM)
COc1ccccc1NC(=O)N[C@H](C(=O)N(CC(=O)NO)CC1CCCC1)C(C)(C)C	0.2 (≈ 0.46 µM)	7.54	0.1 (≈ 0.23 µM)	0.2 (≈ 0.46 µM)
COc1ccccc1NC(=O)N[C@H](C(=O)N(CCC1CCCC1)CC(=O)NO)C(C)(C)C	0.4 (≈ 0.892 µM)	7.51	0.1 (≈ 0.223 µM)	0.8 (≈ 1.78 µM)
COc1ccccc1NC(=O)N[C@H](C(=O)N(CCC(C)C)CC(=O)NO)C(C)(C)C	0.8 (≈ 1.89 µM)	7.68	0.1 (≈ 0.237 µM)	0.8 (≈ 1.89 µM)
